According to the supplement of paper PMC10307832:

Key:
Experiment in all cases: relative viability (nuclei count vs DMSO), 5 days (fraction); higher = more cells survive
[1] = compound: N[C@@H]1CCCN(c2c(/C=C3\SC(=O)NC3=O)cccc2-c2ccccc2)C1 [AZD1208] + CC(=O)Nc1cccc(-n2c(=O)n(C3CC3)c(=O)c3c(Nc4ccc(I)cc4F)n(C)c(=O)c(C)c32)c1 [Trametinib] (partner 0.02 µM)
In short: (§1)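 Relative viability is defined as nuclei in treated wells over nuclei in vehicle wells. Duplicate plates were run and medians reported. Lung cancer cell lines in 1536-well plates were dosed by pin tool one day after seeding, with one drug or with a fixed anchor-drug dose plus five library-drug doses (not always all listed) in √10 steps, and nuclei were counted after 5 days.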

[2] = compound: N[C@@H]1CCCN(c2c(/C=C3\SC(=O)NC3=O)cccc2-c2ccccc2)C1 [AZD1208] + CS(=O)(=O)N1CCN(Cc2cc3nc(-c4cccc5[nH]ncc45)nc(N4CCOCC4)c3s2)CC1 [Pictilisib] (partner 1 µM)
In short: as §1

[3] = compound: CN1CCN(CC1)C2=CC(=C(C=C2)NC3=NC(=C(S3)C(=O)C4=C(C=CC=C4Cl)Cl)N)OC [XMD14-99] + C[C@@H](Oc1cc(-c2cnn(C3CCNCC3)c2)cnc1N)c1c(Cl)ccc(F)c1Cl [Crizotinib] (partner 1 µM)
In short: as §1

[4] = compound: CN1CCN(CC1)C2=CC(=C(C=C2)NC3=NC(=C(S3)C(=O)C4=C(C=CC=C4Cl)Cl)N)OC [XMD14-99] + COc1cc2c(Oc3ccc(NC(=O)C4(C(=O)Nc5ccc(F)cc5)CC4)cc3F)ccnc2cc1OCCCN1CCOCC1 [Foretinib] (partner 0.25 µM)
In short: as §1

| Cell Line | relative viability ([1]; first compound 0.08 µM) | relative viability ([1]; first compound 0.253 µM) | relative viability ([1]; first compound 0.8 µM) | relative viability ([1]; first compound 2.53 µM) | relative viability ([1]; first compound 8 µM) | relative viability ([2]; first compound 0.08 µM) | relative viability ([2]; first compound 0.253 µM) | relative viability ([2]; first compound 0.8 µM) | relative viability ([2]; first compound 2.53 µM) | relative viability ([2]; first compound 8 µM) | relative viability ([3]; first compound 0.08 µM) | relative viability ([3]; first compound 0.8 µM) | relative viability ([3]; first compound 2.53 µM) | relative viability ([3]; first compound 8 µM) | relative viability ([4]; first compound 0.08 µM) | relative viability ([4]; first compound 0.8 µM) | relative viability ([4]; first compound 2.53 µM) | relative viability ([4]; first compound 8 µM) |
| --- | --- | --- | --- | --- | --- | --- | --- | --- | --- | --- | --- | --- | --- | --- | --- | --- | --- | --- |
| BEN | 0.843 | 0.754 | 0.636 | 0.768 | 0.576 | 0.525 | 0.447 | 0.414 | 0.387 | 0.373 | 0.789 | 0.718 | 0.761 | 0.647 | 0.662 | 0.695 | 0.705 | 0.678 |
| EMC-BAC-2 | 0.852 | 0.83 | 0.777 | 0.806 | 0.702 | 0.537 | 0.528 | 0.463 | 0.474 | 0.47 | 0.801 | 0.775 | 0.743 | 0.62 | 1.05 | 0.978 | 0.854 | 0.859 |
| LU99A | 0.574 | 0.575 | 0.515 | 0.508 | 0.446 | 0.304 | 0.294 | 0.289 | 0.35 | 0.236 | 0.612 | 0.489 | 0.542 | 0.468 | 0.893 | 0.872 | 0.729 | 0.649 |
| ABC-1 | – | – | – | – | – | 0.526 | 0.665 | 0.565 | 0.623 | 0.627 | 1 | 1.07 | 1.04 | 0.802 | 1.14 | 0.883 | 0.957 | 0.937 |
| NCI-H2170 | 0.966 | 1 | 0.869 | 0.868 | 0.57 | 0.319 | 0.263 | 0.254 | 0.213 | 0.224 | 1.14 | 1.21 | 1.26 | 0.937 | 0.978 | 1.02 | 1.02 | 0.921 |
| NCI-H1299 | – | – | – | – | – | 0.731 | 0.725 | 0.818 | 0.653 | 0.562 | 0.946 | 0.898 | 0.998 | 0.769 | 1.11 | 1.02 | 1.1 | 0.949 |
| EBC-1 | – | – | – | – | – | 0.2 | 0.275 | 0.265 | 0.271 | 0.274 | 0.232 | 0.19 | 0.188 | 0.156 | 0.113 | 0.11 | 0.112 | 0.0979 |
| NCI-H2405 | 0.582 | 0.56 | 0.562 | 0.528 | 0.453 | 0.394 | 0.397 | 0.333 | 0.373 | 0.385 | 0.84 | 0.858 | 0.863 | 0.674 | 1.04 | 1.03 | 1.02 | 0.838 |
| NCI-H2009 | 0.264 | 0.249 | 0.256 | 0.224 | 0.207 | 0.725 | 0.811 | 0.75 | 0.553 | 0.714 | 1 | 0.939 | 0.997 | 0.767 | 1.21 | 1.25 | 1.14 | 1.12 |
| NCI-H441 | 0.515 | 0.547 | 0.327 | 0.405 | 0.446 | 0.343 | 0.427 | 0.34 | 0.314 | 0.305 | 0.596 | 0.797 | 0.661 | 0.494 | 0.766 | 0.993 | 0.849 | 0.751 |
| PC-14 | 0.681 | 0.704 | 0.512 | 0.662 | 0.524 | 0.617 | 0.743 | 0.436 | 0.584 | 0.482 | 0.824 | 0.796 | 0.866 | 0.714 | 0.964 | 0.969 | 0.864 | 0.852 |
| NCI-H2342 | 0.803 | 0.806 | 0.781 | 0.678 | 0.637 | – | – | – | – | – | – | – | – | – | 1.15 | 0.943 | 0.973 | 0.784 |
| NCI-H1792 | 0.424 | 0.368 | – | 0.312 | 0.306 | 0.255 | 0.272 | 0.258 | 0.218 | 0.199 | 1.02 | 0.956 | 1.01 | 0.709 | – | – | – | – |
| HCC-44 | 1.1 | 1.12 | 1.02 | 1.1 | 1.05 | 0.617 | 0.463 | 0.372 | 0.46 | 0.458 | 0.828 | 0.762 | 0.855 | 0.765 | – | – | – | – |
| NCI-H1793 | 0.356 | 0.566 | 0.33 | 0.473 | 0.342 | 0.362 | 0.212 | 0.257 | 0.385 | 0.276 | – | – | – | – | 0.704 | 0.608 | 0.644 | 0.641 |
| A549 | – | – | – | – | – | 0.409 | 0.423 | 0.303 | 0.283 | 0.358 | 0.593 | 0.728 | 0.705 | 0.452 | 0.899 | 0.916 | 0.787 | 0.693 |
| NCI-H1563 | – | – | – | – | – | 0.566 | 0.545 | 0.672 | 0.635 | 0.629 | 0.858 | 0.905 | 0.896 | 0.786 | 0.878 | 0.941 | 0.871 | 0.74 |
| NCI-H1395 | 1.03 | 1.08 | 0.932 | 1.01 | 0.878 | 0.694 | 0.618 | 0.553 | 0.554 | 0.644 | – | – | – | – | 0.986 | 0.965 | 0.998 | 0.901 |
| SW 900 | 0.721 | 0.941 | 0.697 | 0.641 | 0.708 | – | – | – | – | – | – | – | – | – | 1.02 | 0.694 | 0.802 | 0.718 |
| IA-LM | – | – | – | – | – | 0.256 | 0.326 | 0.292 | 0.231 | 0.308 | 0.742 | 0.561 | 0.435 | 0.331 | 1.05 | 0.964 | 0.978 | 0.458 |
| NCI-H1703 | – | – | – | – | – | 0.225 | 0.242 | 0.238 | 0.214 | 0.198 | 0.611 | 0.52 | 0.58 | 0.587 | 0.345 | 0.329 | 0.339 | 0.273 |
| NCI-H1648 | 0.588 | 0.441 | 0.435 | 0.402 | 0.497 | – | – | – | – | – | – | – | – | – | – | – | – | – |
